Assay [1] relates to cardiomyocytes derived from Id1 overexpressing h9-hESCs. Briefly: Beat rate of cardiomyocytes measured optically with VF2.1 Cl. In kind it is cell-based, human. The following applies: 100 nM, compared to vehicle. As for the experimental part: FIG. 3F. Schematic of the workflow for the physiological assessment of cardiomyocytes derived from Id1 overexpressing h9-hESCs using the calcium (Fluo-4) and voltage (VF2.1 Cl)(Miller et al., 2012) sensitive dyes.
Next, experiments were performed to determine whether iMP progenitors are bona fide multipotent cardiovascular progenitors and thus able to differentiate into multiple cardiac lineages including functional cardiomyocytes. To address this question, iMPs were first produced in bulk until day 6 of differentiation for mouse, or day 5 for human. At this point, iMPs could be cryopreserved or used fresh. Spontaneous differentiation potential under basal media conditions without cytokines (FIG. 3A) was assessed by RT-qPCR (FIGS. 3B, 3C) and immunostaining (FIG. 3D and FIGS. 9A, 9B) at day 15 of differentiation. […] Although iMPs are multipotent progenitors, the vast majority of the cells (˜70%) spontaneously differentiate into ACTC1^+ cardiomyocytes in hESCs (FIG. 3E). Next, we assessed whether resulting ACTC1^+ cells show characteristics of functional cardiomyocytes, which include the ability to contract, display intracellular calcium oscillations and action potentials, and respond to hormonal stimuli (Birket et al., 2015; Burridge et al., 2014).

A further assay has as its system mESCs. The following applies: cited from earlier work.

Entries after “also recorded” stand apart in the source; their conditions may differ.

In the case of `CC(C)NCC(O)c1ccc(O)c(O)c1` (centres unmarked) [isoproterenol], in assay [1], the beat rate result was “increased beat rate; also recorded: increase in beating frequency”. Consider `NC(=O)c1ccc(-c2nc(-c3ccc4c(c3)OCO4)c(-c3ccccn3)[nH]2)cc1` [SB431542], for which the Id1 transcripts result in the assay with mESCs was “upregulate Id1 transcripts”.

The values above are taken from US11821003B2, “Cardiogenic mesoderm formation regulators” (Sanford Burnham Prebys Medical Discovery Institute, priority 2017, dated 2023).
